Tests used:
Format in all cases: cell-based
[1] = target: T1, hSLC2A9b (human glucose transporter 9) (Homo sapiens, UniProt Q9NRM0); assay: […] fructose uptake in Xenopus oocytes
T1 construct: gene SLC2A9; hSLC2A9b isoform (shorter N-terminus), WT
T1 sequence (Q9NRM0 1-511 isoform Q9NRM0-2 limits assumed): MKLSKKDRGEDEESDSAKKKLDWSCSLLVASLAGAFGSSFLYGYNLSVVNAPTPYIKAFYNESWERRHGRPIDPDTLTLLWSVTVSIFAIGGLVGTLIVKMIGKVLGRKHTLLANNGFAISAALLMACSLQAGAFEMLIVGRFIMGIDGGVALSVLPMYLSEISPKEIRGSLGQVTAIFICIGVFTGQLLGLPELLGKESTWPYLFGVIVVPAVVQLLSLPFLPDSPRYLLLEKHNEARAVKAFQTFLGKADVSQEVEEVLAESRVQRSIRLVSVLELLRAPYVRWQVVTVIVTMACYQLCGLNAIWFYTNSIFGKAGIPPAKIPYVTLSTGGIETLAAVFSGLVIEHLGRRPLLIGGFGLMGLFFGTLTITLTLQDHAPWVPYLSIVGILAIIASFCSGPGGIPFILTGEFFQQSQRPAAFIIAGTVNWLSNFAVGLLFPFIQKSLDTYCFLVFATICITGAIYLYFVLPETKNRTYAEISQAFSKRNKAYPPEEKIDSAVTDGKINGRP

[2] = target: T1, hSLC2A9b (human glucose transporter 9); assay: TEVC inhibition of urate-induced current and […] urate flux in Xenopus oocytes
[3] = target: T1, hSLC2A9b (human glucose transporter 9); assay: […] urate flux kinetics and TEVC in Xenopus oocytes

With OC[C@H]1OC(O)(CO)[C@@H](O)[C@@H]1O (stereo partly drawn) [fructose] the “14C fructose uptake in Xenopus oocytes” value [1] was “all mutants transported fructose similarly as WT hSLC2A9b”.

Work on O=S(=O)(O)c1cc[c]([Hg][Cl])cc1 [pCMBS] yielded an IC50 [2] of 52.5 µM.

For O=c1[nH]c(=O)c2[nH]c(=O)[nH]c2[nH]1 [urate], the “14C urate flux kinetics and TEVC in Xenopus oocytes” value [3] was “both WT hSLC2A9b and its cysteine mutants exhibited Michaelis-Menten type kinetics for urate transport”.

Source: PMC5259734, “Identification of Key Residues for Urate Specific Transport in Human Glucose Transporter 9 (hSLC2A9)” (Scientific Reports, 2017)
